Assays:
Type in all cases: in vivo
[1] = tested on: large crabgrass (Digitaria sanguinalis); test: Test A pre-/postemergence plant response
Excerpt: (§1) Seeds of barnyardgrass (Echinochloa crus-galli), large crabgrass (Digitaria sanguinalis), giant foxtail (Setaria faberii), morningglory (Ipomoea spp.), pigweed (Amaranthus retroflexus), velvetleaf (Abutilon theophrasti), wheat (Triticum aestivum) and corn (Zea mays) were planted into a blend of loam soil and sand and treated preemergence with a directed soil spray using test chemicals formulated in a non-phytotoxic solvent mixture which included a surfactant. At the same time these species were also treated with postemergence applications of test compounds formulated in the same manner.
(§2) Plants ranged in height from two to ten cm and were in the one- to two-leaf stage for the postemergence treatment. Treated plants and untreated controls were maintained in a greenhouse for approximately ten days, after which time all treated plants were compared to untreated controls and visually evaluated for injury. Plant response ratings, summarized in Table A, are based on a 0 to 100 scale where 0 is no effect and 100 is complete control. A dash (-) response means no test result.

[2] = tested on: barnyardgrass (Echinochloa crus-galli); test: Test A pre-/postemergence plant response
Excerpt: as §1, §2

[3] = tested on: corn (Zea mays); test: Test A pre-/postemergence plant response
Excerpt: as §1, §2

[4] = tested on: giant foxtail (Setaria faberii); test: Test A pre-/postemergence plant response
Excerpt: as §1, §2

[5] = tested on: morningglory (Ipomoea spp.); test: Test A pre-/postemergence plant response
Excerpt: as §1, §2

[6] = tested on: pigweed (Amaranthus retroflexus); test: Test A pre-/postemergence plant response
Excerpt: as §1, §2

[7] = tested on: wheat (Triticum aestivum); test: Test A pre-/postemergence plant response
Excerpt: as §1, §2

[8] = tested on: velvetleaf (Abutilon theophrasti); test: Test A pre-/postemergence plant response
Excerpt: as §1, §2

[9] = tested on: barnyardgrass (Echinochloa crus-galli); test: Test B flooded paddy test; conditions: for Plant response rating, Flood, Barnyardgrass: 250 g ai/ha, flooded paddy test, visual rating on 0 to 100 scale (0 no effect, 100 complete control) after 13 to 15 days; for Plant response rating, Barnyardgrass: Flood (flooded paddy test), 13 to 15 days
Excerpt: (§3) Plant species in the flooded paddy test consisted of rice (Oryza sativa), umbrella sedge (Cyperus difformis), ducksalad (Heteranthera limosa) and barnyardgrass (Echinochloa crus-galli) grown to the 2-leaf stage for testing. At the time of treatment, test pots were flooded with water to 3 cm above the soil surface, treated by application of test compounds directly to the paddy water, and then maintained at that water depth for the duration of the test.
(§4) Treated plants and controls were maintained in a greenhouse for 13 to 15 days, after which time all treated plants were visually evaluated and compared to controls. Plant response ratings, summarized in Table B, are based on a scale of 0 to 100 where 0 is no effect and 100 is complete control. A dash (-) response means no test result.

[10] = tested on: umbrella sedge (Cyperus difformis); test: Test B flooded paddy test; conditions: for Plant response rating, Flood, Sedge, Umbrella: 250 g ai/ha, flooded paddy test, visual rating on 0 to 100 scale (0 no effect, 100 complete control) after 13 to 15 days; for Plant response rating, Sedge, Umbrella: Flood (flooded paddy test), 13 to 15 days
Excerpt: as §3, §4

[11] = tested on: rice (Oryza sativa); test: Test B flooded paddy test; conditions: for Plant response rating, Flood, Rice: 250 g ai/ha, flooded paddy test, visual rating on 0 to 100 scale (0 no effect, 100 complete control) after 13 to 15 days; for Plant response rating, Rice: Flood (flooded paddy test), 13 to 15 days
Excerpt: as §3, §4

[12] = tested on: ducksalad (Heteranthera limosa); test: Test B flooded paddy test; conditions: for Plant response rating, Flood, Ducksalad: 250 g ai/ha, flooded paddy test, visual rating on 0 to 100 scale (0 no effect, 100 complete control) after 13 to 15 days; for Plant response rating, Ducksalad: Flood (flooded paddy test), 13 to 15 days
Excerpt: as §3, §4

[13] = Postemergence, 125 g ai/ha, visual injury, 0 to 100 scale (0 no effect, 100 complete control), approx. ten days
[14] = Postemergence, 500 g ai/ha, 0 to 100 scale, 0 = no effect, 100 = complete control, approx. ten days
[15] = Preemergence, 125 g ai/ha, 0 to 100 scale, 0 = no effect, 100 = complete control
[16] = Preemergence, 500 g ai/ha, visual injury, 0 to 100 scale (0 no effect, 100 complete control), approx. ten days
[17] = 62 g ai/ha, scale 0 to 100, 0 is no effect, 100 is complete control
[18] = 31 g ai/ha, scale of 0 to 100 where 0 is no effect and 100 is complete control
[19] = 62 g ai/ha, scale of 0 to 100 where 0 is no effect and 100 is complete control
[20] = 125 g ai/ha, scale 0 to 100, 0 is no effect, 100 is complete control
[21] = Postemergence, 125 g ai/ha, 0 to 100 scale where 0 is no effect and 100 is complete control
[22] = Flood, 31 g ai/ha, scale 0 to 100 (0 no effect, 100 complete control)

SMILES: Cc1cc(Cl)ccc1-n1c(-c2ccccc2)ncc(C(=O)C2=C(O)CCCC2=O)c1=O [Compound 43]
- Crabgrass, Large plant response rating [1, 13]: 70
- Plant response rating, Crabgrass, Large [1, 14]: 90
- Plant response rating, Crabgrass, Large [1, 15]: 50
- Plant response rating, Crabgrass, Large [1, 16]: 100
- Barnyardgrass plant response rating [2, 13]: 70
- Plant response rating, Barnyardgrass [2, 14]: 90
- Plant response rating, Barnyardgrass [2, 15]: 10
- Plant response rating, Barnyardgrass [2, 16]: 80
- Corn plant response rating [3, 13]: 0
- Plant response rating, Corn [3, 14]: 50
- Plant response rating, Corn [3, 15]: 0
- Plant response rating, Corn [3, 16]: 0
- Foxtail, Giant plant response rating [4, 13]: 60
- Plant response rating, Foxtail, Giant [4, 14]: 80
- Plant response rating, Foxtail, Giant [4, 15]: 10
- Plant response rating, Foxtail, Giant [4, 16]: 70
- Morningglory plant response rating [5, 13]: 20
- Plant response rating, Morningglory [5, 14]: 80
- Plant response rating, Morningglory [5, 15]: 0
- Plant response rating, Morningglory [5, 16]: 10
- Pigweed plant response rating [6, 13]: 100
- Plant response rating, Pigweed [6, 14]: 100
- Plant response rating, Pigweed [6, 15]: 90
- Plant response rating, Pigweed [6, 16]: 100
- Wheat plant response rating [7, 13]: 0
- Plant response rating, Wheat [7, 14]: 0
- Plant response rating, Wheat [7, 15]: 0
- Plant response rating, Wheat [7, 16]: 0
- Velvetleaf plant response rating [8, 13]: 100
- Plant response rating, Velvetleaf [8, 14]: 100
- Plant response rating, Velvetleaf [8, 15]: 60
- Plant response rating, Velvetleaf [8, 16]: 100
- Plant response rating, Flood, Barnyardgrass [9]: 20
- Plant response rating, Barnyardgrass [9, 17]: 20
- Plant response rating, Flood, Sedge, Umbrella [10]: 80
- Plant response rating, Sedge, Umbrella [10, 17]: 30
- Plant response rating, Flood, Rice [11]: 40
- Plant response rating, Rice [11, 17]: 0
- Plant response rating, Flood, Ducksalad [12]: 80
- Plant response rating, Ducksalad [12, 17]: 70

SMILES: CC(C)c1ncc(C(=O)C2=C(O)CCCC2=O)c(=O)n1-c1ccccc1 [Compound 60]
- Crabgrass, Large plant response rating [1, 13]: 90
- Plant response rating, Crabgrass, Large [1, 14]: 100
- Plant response rating, Crabgrass, Large [1, 15]: 90
- Plant response rating, Crabgrass, Large [1, 16]: 100
- Barnyardgrass plant response rating [2, 13]: 60
- Plant response rating, Barnyardgrass [2, 14]: 90
- Plant response rating, Barnyardgrass [2, 15]: 60
- Plant response rating, Barnyardgrass [2, 16]: 90
- Corn plant response rating [3, 13]: 0
- Plant response rating, Corn [3, 14]: 10
- Plant response rating, Corn [3, 15]: 0
- Plant response rating, Corn [3, 16]: 10
- Foxtail, Giant plant response rating [4, 13]: 80
- Plant response rating, Foxtail, Giant [4, 14]: 90
- Plant response rating, Foxtail, Giant [4, 15]: 60
- Plant response rating, Foxtail, Giant [4, 16]: 90
- Morningglory plant response rating [5, 13]: 60
- Plant response rating, Morningglory [5, 14]: 90
- Plant response rating, Morningglory [5, 16]: 80
- Pigweed plant response rating [6, 13]: 100
- Plant response rating, Pigweed [6, 14]: 100
- Plant response rating, Pigweed [6, 15]: 90
- Plant response rating, Pigweed [6, 16]: 100
- Wheat plant response rating [7, 13]: 20
- Plant response rating, Wheat [7, 14]: 50
- Plant response rating, Wheat [7, 15]: 0
- Plant response rating, Wheat [7, 16]: 40
- Velvetleaf plant response rating [8, 13]: 100
- Plant response rating, Velvetleaf [8, 14]: 100
- Plant response rating, Velvetleaf [8, 15]: 80
- Plant response rating, Velvetleaf [8, 16]: 100
- Plant response rating, Flood, Barnyardgrass [9]: 40
- Plant response rating, Barnyardgrass [9, 18]: 0
- Plant response rating, Barnyardgrass [9, 19]: 0
- Plant response rating, Barnyardgrass [9, 20]: 30
- Plant response rating, Flood, Sedge, Umbrella [10]: 85
- Plant response rating, Sedge, Umbrella [10, 18]: 0
- Plant response rating, Sedge, Umbrella [10, 19]: 30
- Plant response rating, Sedge, Umbrella [10, 20]: 75
- Plant response rating, Flood, Rice [11]: 15
- Plant response rating, Rice [11, 18]: 0
- Plant response rating, Rice [11, 19]: 0
- Plant response rating, Rice [11, 20]: 0
- Plant response rating, Flood, Ducksalad [12]: 60
- Plant response rating, Ducksalad [12, 18]: 0
- Plant response rating, Ducksalad [12, 19]: 0
- Plant response rating, Ducksalad [12, 20]: 40

SMILES: CCCn1c(-c2ccccc2F)ncc(C(=O)C2=C(O)CCCC2=O)c1=O [Compound 101]
- Plant response rating, Crabgrass, Large [1, 21]: 90
- Plant response rating, Crabgrass, Large [1, 14]: 90
- Plant response rating, Crabgrass, Large [1, 15]: 70
- Plant response rating, Crabgrass, Large [1, 16]: 90
- Plant response rating, Barnyardgrass [2, 21]: 80
- Plant response rating, Barnyardgrass [2, 14]: 90
- Plant response rating, Barnyardgrass [2, 15]: 20
- Plant response rating, Barnyardgrass [2, 16]: 70
- Plant response rating, Corn [3, 21]: 0
- Plant response rating, Corn [3, 14]: 10
- Plant response rating, Corn [3, 15]: 0
- Plant response rating, Corn [3, 16]: 0
- Plant response rating, Foxtail, Giant [4, 21]: 60
- Plant response rating, Foxtail, Giant [4, 14]: 80
- Plant response rating, Foxtail, Giant [4, 15]: 30
- Plant response rating, Foxtail, Giant [4, 16]: 50
- Plant response rating, Morningglory [5, 21]: 60
- Plant response rating, Morningglory [5, 14]: 70
- Plant response rating, Morningglory [5, 15]: 80
- Plant response rating, Morningglory [5, 16]: 80
- Plant response rating, Pigweed [6, 21]: 90
- Plant response rating, Pigweed [6, 14]: 100
- Plant response rating, Pigweed [6, 15]: 70
- Plant response rating, Pigweed [6, 16]: 80
- Plant response rating, Wheat [7, 21]: 0
- Plant response rating, Wheat [7, 14]: 0
- Plant response rating, Wheat [7, 15]: 0
- Plant response rating, Wheat [7, 16]: 0
- Plant response rating, Velvetleaf [8, 21]: 100
- Plant response rating, Velvetleaf [8, 14]: 100
- Plant response rating, Velvetleaf [8, 15]: 80
- Plant response rating, Velvetleaf [8, 16]: 100
- Plant response rating, Flood, Barnyardgrass [9]: 40
- Plant response rating, Barnyardgrass [9, 19]: 40
- Plant response rating, Barnyardgrass [9, 20]: 40
- Barnyardgrass plant response rating [9, 22]: 20
- Plant response rating, Flood, Sedge, Umbrella [10]: 65
- Plant response rating, Sedge, Umbrella [10, 19]: 20
- Plant response rating, Sedge, Umbrella [10, 20]: 30
- Sedge, Umbrella plant response rating [10, 22]: 0
- Plant response rating, Flood, Rice [11]: 20
- Plant response rating, Rice [11, 19]: 0
- Plant response rating, Rice [11, 20]: 0
- Rice plant response rating [11, 22]: 0
- Plant response rating, Flood, Ducksalad [12]: 30
- Plant response rating, Ducksalad [12, 19]: 30
- Plant response rating, Ducksalad [12, 20]: 30
- Ducksalad plant response rating [12, 22]: 20

SMILES: CCCn1c(-c2ccc(OC)cc2)ncc(C(=O)C2=C(O)CCCC2=O)c1=O [Compound 112]
- Plant response rating, Crabgrass, Large [1, 21]: 80
- Plant response rating, Crabgrass, Large [1, 14]: 90
- Plant response rating, Crabgrass, Large [1, 15]: 60
- Plant response rating, Crabgrass, Large [1, 16]: 100
- Plant response rating, Barnyardgrass [2, 21]: 60
- Plant response rating, Barnyardgrass [2, 14]: 90
- Plant response rating, Barnyardgrass [2, 15]: 0
- Plant response rating, Barnyardgrass [2, 16]: 80
- Plant response rating, Corn [3, 21]: 0
- Plant response rating, Corn [3, 14]: 20
- Plant response rating, Corn [3, 15]: 0
- Plant response rating, Corn [3, 16]: 0
- Plant response rating, Foxtail, Giant [4, 21]: 70
- Plant response rating, Foxtail, Giant [4, 14]: 80
- Plant response rating, Foxtail, Giant [4, 15]: 20
- Plant response rating, Foxtail, Giant [4, 16]: 60
- Plant response rating, Morningglory [5, 21]: 90
- Plant response rating, Morningglory [5, 14]: 100
- Plant response rating, Morningglory [5, 15]: 0
- Plant response rating, Morningglory [5, 16]: 80
- Plant response rating, Pigweed [6, 21]: 90
- Plant response rating, Pigweed [6, 14]: 100
- Plant response rating, Pigweed [6, 15]: 20
- Plant response rating, Pigweed [6, 16]: 100
- Plant response rating, Wheat [7, 21]: 0
- Plant response rating, Wheat [7, 14]: 10
- Plant response rating, Wheat [7, 15]: 0
- Plant response rating, Wheat [7, 16]: 0
- Plant response rating, Velvetleaf [8, 21]: 100
- Plant response rating, Velvetleaf [8, 14]: 100
- Plant response rating, Velvetleaf [8, 15]: 40
- Plant response rating, Velvetleaf [8, 16]: 70
- Plant response rating, Flood, Barnyardgrass [9]: 40
- Plant response rating, Barnyardgrass [9, 19]: 35
- Plant response rating, Flood, Sedge, Umbrella [10]: 90
- Plant response rating, Sedge, Umbrella [10, 19]: 85
- Plant response rating, Flood, Rice [11]: 15
- Plant response rating, Rice [11, 19]: 0
- Plant response rating, Flood, Ducksalad [12]: 95
- Plant response rating, Ducksalad [12, 19]: 85

From US8952024B2, “Herbicidal pyrimidone derivatives” (E I du Pont de Nemours and Company, priority 2009, dated 2015)
